Where two headings read alike, the source gives them in different places.

This assay has as its target T1, IRAK4 (Homo sapiens, UniProt Q9NWZ3).
T1 construct: Degradation of IRAK4 in OCI-LY10 was quantitatively measured using Meso Scale Discovery technology; endogenous in cells; host or cells: OCI-LY10
T1 sequence (Q9NWZ3 1-460): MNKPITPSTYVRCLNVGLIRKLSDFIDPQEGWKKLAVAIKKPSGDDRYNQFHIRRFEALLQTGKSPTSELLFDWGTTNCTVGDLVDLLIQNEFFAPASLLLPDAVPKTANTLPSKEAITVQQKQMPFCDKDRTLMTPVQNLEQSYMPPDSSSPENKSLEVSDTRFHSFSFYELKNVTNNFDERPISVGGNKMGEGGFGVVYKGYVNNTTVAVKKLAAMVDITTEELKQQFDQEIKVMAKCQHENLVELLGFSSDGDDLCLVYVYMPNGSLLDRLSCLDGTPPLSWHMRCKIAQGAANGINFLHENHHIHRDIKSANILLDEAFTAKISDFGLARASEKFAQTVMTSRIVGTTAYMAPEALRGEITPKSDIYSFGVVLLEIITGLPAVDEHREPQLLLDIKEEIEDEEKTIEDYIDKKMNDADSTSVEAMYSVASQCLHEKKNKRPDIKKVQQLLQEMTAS
As to the kind of experiment: IRAK4 MSD Degradation in OCI-LY10. In kind it is cell-based. The settings on record: OCI-LY10 cells, MSD. The method, boiled down:
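OCI-LY10 cells exposed to 8-point 1:3 compound series (top 1 to 10 μM) for 4 to 24 h at 37 °C, 5% CO2. Lysate IRAK4 quantified by MSD sandwich immunoassay. DC50 from three-parameter logistic fit, binned A (<0.01 μM) to D (>0.2 μM or not tested).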

[1] abbreviates: 4 hrs incubation, read-out: IRAK4 degradation in OCI-LY10 at 4 hrs: DC50.
[2] abbreviates: 24 hrs incubation, read-out: IRAK4 degradation in OCI-LY10 at 24 hrs: DC50.

On to `Cn1c(=O)n(C2CCC(=O)NC2=O)c2cccc(C3CN(C[C@H]4CC[C@H](n5cc6cc(NC(=O)c7cccc(C(F)(F)F)n7)ccc6n5)CC4)C3)c21` (stereo partly drawn) [I-609], for which the 50% degradation concentration (DC50) (usually the midpoint of the concentration-degradation curve) is more than 200 nM under setting [1] and more than 200 nM under setting [2].

As to `Cn1c(=O)n(C2CCC(=O)NC2=O)c2cccc(C3CN(C[C@H]4CC[C@H](n5cc6cc(NC(=O)c7cccc(C(F)(F)F)n7)ncc6n5)CC4)C3)c21` (stereo partly drawn) [I-610], the DC50 under setting [1] was more than 200 nM and the DC50 under setting [2] is more than 200 nM.

On to `Cc1cccc(C(=O)Nc2ccc3nn([C@H]4CC[C@H](CN5CCC(c6cccc7c6n(C)c(=O)n7C6CCC(=O)NC6=O)C(F)(F)C5)CC4)cc3c2)n1` (stereo partly drawn) [I-611], for which the DC50 reads like this: under setting [1], more than 200 nM; under setting [2], more than 200 nM.

As for `Cn1c(=O)n(C2CCC(=O)NC2=O)c2cccc(C3CCN(C[C@H]4CC[C@H](n5cc6cc(NC(=O)c7cccc(C#N)n7)ccc6n5)CC4)CC3(F)F)c21` (stereo partly drawn) [I-612], the DC50 by setting is: under setting [1], more than 200 nM; under setting [2], more than 200 nM.

Turning to `Cn1c(=O)n(C2CCC(=O)NC2=O)c2cccc(C3CCN(C[C@H]4CC[C@H](n5cc6cc(NC(=O)c7cccc(C(F)F)n7)ccc6n5)CC4)CC3(F)F)c21` (stereo partly drawn) [I-613], the DC50 reads like this: under setting [1], more than 200 nM; under setting [2], less than 10 nM.

Consider `Cc1cccc(C(=O)Nc2cc3cn([C@H]4CC[C@H](CN5CCC(c6cccc7c6n(C)c(=O)n7C6CCC(=O)NC6=O)C(F)(F)C5)CC4)nc3cn2)n1` (stereo partly drawn) [I-614], for which the DC50 runs as follows: under setting [1], more than 200 nM; under setting [2], less than 10 nM.

For the compound `Cn1c(=O)n(C2CCC(=O)NC2=O)c2cccc(C3CCN(C[C@H]4CC[C@H](n5cc6cc(NC(=O)c7cccc(C#N)n7)ncc6n5)CC4)CC3(F)F)c21` (stereo partly drawn) [I-615], the DC50 is, setting by setting: under setting [1], more than 200 nM; under setting [2], less than 10 nM.

Regarding `Cn1c(=O)n(C2CCC(=O)NC2=O)c2cccc(C3CCN(C[C@H]4CC[C@H](n5cc6cc(NC(=O)c7cccc(C(F)F)n7)ncc6n5)CC4)CC3(F)F)c21` (stereo partly drawn) [I-616], the DC50 is more than 200 nM under setting [1] and less than 10 nM under setting [2].

In the case of `Cc1cccc(C(=O)Nc2cc3cn([C@H]4CC[C@H](CN5CCC(c6cccc7c6n(C)c(=O)n7C6CCC(=O)NC6=O)C(F)(F)C5)CC4)nc3cc2C(C)(C)O)n1` (stereo partly drawn) [I-617], the DC50 under setting [1] was more than 200 nM and the DC50 under setting [2] is less than 10 nM.

In the case of `Cn1c(=O)n(C2CCC(=O)NC2=O)c2cccc(C3CCN(C[C@H]4CC[C@H](n5cc6cc(NC(=O)c7cccc(C#N)n7)c(C(C)(C)O)cc6n5)CC4)CC3(F)F)c21` (stereo partly drawn) [I-618], the 50% degradation concentration (DC50) under setting [1] is more than 200 nM and the 50% degradation concentration (DC50) under setting [2] was less than 10 nM.

In the case of `Cn1c(=O)n(C2CCC(=O)NC2=O)c2cccc(C3CCN(C[C@H]4CC[C@H](n5cc6cc(NC(=O)c7cccc(C(F)F)n7)c(C(C)(C)O)cc6n5)CC4)CC3(F)F)c21` (stereo partly drawn) [I-619], the DC50 runs as follows: under setting [1], more than 200 nM; under setting [2], less than 10 nM.

In the case of `Cc1cccc(C(=O)Nc2ccc3nn([C@H]4CC[C@H](CN5CC[C@@H](c6cccc7c6n(C)c(=O)n7C6CCC(=O)NC6=O)[C@@H](F)C5)CC4)cc3c2)n1` (stereo partly drawn) [I-620], the DC50 runs as follows: under setting [1], more than 200 nM; under setting [2], more than 200 nM.

For the compound `Cc1cccc(C(=O)Nc2ccc3nn([C@H]4CC[C@H](CN5CC[C@@H](c6cccc7c6n(C)c(=O)n7C6CCC(=O)NC6=O)[C@H](F)C5)CC4)cc3c2)n1` (stereo partly drawn) [I-621], the 50% degradation concentration (DC50) is more than 200 nM under setting [1] and more than 200 nM under setting [2].

Turning to `Cc1cccc(C(=O)Nc2ccc3nn([C@H]4CC[C@H](CN5CC[C@H](c6cccc7c6n(C)c(=O)n7C6CCC(=O)NC6=O)[C@@H](F)C5)CC4)cc3c2)n1` (stereo partly drawn) [I-622], the DC50 was more than 200 nM under setting [1] and more than 200 nM under setting [2].

On to `Cc1cccc(C(=O)Nc2ccc3nn([C@H]4CC[C@H](CN5CC[C@H](c6cccc7c6n(C)c(=O)n7C6CCC(=O)NC6=O)[C@H](F)C5)CC4)cc3c2)n1` (stereo partly drawn) [I-623], for which the DC50 by setting is: under setting [1], more than 200 nM; under setting [2], more than 200 nM.

With `Cn1c(=O)n(C2CCC(=O)NC2=O)c2cccc([C@@H]3CCN(C[C@H]4CC[C@H](n5cc6cc(NC(=O)c7cccc(C#N)n7)ccc6n5)CC4)C[C@@H]3F)c21` (stereo partly drawn) [I-624], the DC50 runs as follows: under setting [1], more than 200 nM; under setting [2], more than 200 nM.

On to `Cn1c(=O)n(C2CCC(=O)NC2=O)c2cccc([C@@H]3CCN(C[C@H]4CC[C@H](n5cc6cc(NC(=O)c7cccc(C#N)n7)ccc6n5)CC4)C[C@H]3F)c21` (stereo partly drawn) [I-625], for which the DC50 was more than 200 nM under setting [1] and less than 10 nM under setting [2].

In the case of `Cn1c(=O)n(C2CCC(=O)NC2=O)c2cccc([C@H]3CCN(C[C@H]4CC[C@H](n5cc6cc(NC(=O)c7cccc(C#N)n7)ccc6n5)CC4)C[C@@H]3F)c21` (stereo partly drawn) [I-626], the DC50 under setting [1] was more than 200 nM and the DC50 under setting [2] was more than 200 nM.

Turning to `Cn1c(=O)n(C2CCC(=O)NC2=O)c2cccc([C@H]3CCN(C[C@H]4CC[C@H](n5cc6cc(NC(=O)c7cccc(C#N)n7)ccc6n5)CC4)C[C@H]3F)c21` (stereo partly drawn) [I-627], the DC50 is more than 200 nM under setting [1] and more than 200 nM under setting [2].

For the compound `Cn1c(=O)n(C2CCC(=O)NC2=O)c2cccc([C@@H]3CCN(C[C@H]4CC[C@H](n5cc6cc(NC(=O)c7cccc(C(F)F)n7)ccc6n5)CC4)C[C@@H]3F)c21` (stereo partly drawn) [I-628], the DC50 reads like this: under setting [1], more than 200 nM; under setting [2], more than 200 nM.

Regarding `Cn1c(=O)n(C2CCC(=O)NC2=O)c2cccc([C@@H]3CCN(C[C@H]4CC[C@H](n5cc6cc(NC(=O)c7cccc(C(F)F)n7)ccc6n5)CC4)C[C@H]3F)c21` (stereo partly drawn) [I-629], the DC50 was more than 200 nM under setting [1] and less than 10 nM under setting [2].

Take `Cn1c(=O)n(C2CCC(=O)NC2=O)c2cccc([C@H]3CCN(C[C@H]4CC[C@H](n5cc6cc(NC(=O)c7cccc(C(F)F)n7)ccc6n5)CC4)C[C@@H]3F)c21` (stereo partly drawn) [I-630]: the DC50 reads like this: under setting [1], more than 200 nM; under setting [2], more than 200 nM.

Turning to `Cn1c(=O)n(C2CCC(=O)NC2=O)c2cccc([C@H]3CCN(C[C@H]4CC[C@H](n5cc6cc(NC(=O)c7cccc(C(F)F)n7)ccc6n5)CC4)C[C@H]3F)c21` (stereo partly drawn) [I-631], the 50% degradation concentration (DC50) runs as follows: under setting [1], more than 200 nM; under setting [2], more than 200 nM.

Regarding `Cc1cccc(C(=O)Nc2cc3cn([C@H]4CC[C@H](CN5CC[C@@H](c6cccc7c6n(C)c(=O)n7C6CCC(=O)NC6=O)[C@@H](F)C5)CC4)nc3cn2)n1` (stereo partly drawn) [I-632], the DC50 is more than 200 nM under setting [1] and more than 200 nM under setting [2].

As for `Cc1cccc(C(=O)Nc2cc3cn([C@H]4CC[C@H](CN5CC[C@@H](c6cccc7c6n(C)c(=O)n7C6CCC(=O)NC6=O)[C@H](F)C5)CC4)nc3cn2)n1` (stereo partly drawn) [I-633], the DC50 by setting is: under setting [1], more than 200 nM; under setting [2], less than 10 nM.

Regarding `Cc1cccc(C(=O)Nc2cc3cn([C@H]4CC[C@H](CN5CC[C@H](c6cccc7c6n(C)c(=O)n7C6CCC(=O)NC6=O)[C@@H](F)C5)CC4)nc3cn2)n1` (stereo partly drawn) [I-634], the DC50 is, setting by setting: under setting [1], more than 200 nM; under setting [2], more than 200 nM.

Regarding `Cc1cccc(C(=O)Nc2cc3cn([C@H]4CC[C@H](CN5CC[C@H](c6cccc7c6n(C)c(=O)n7C6CCC(=O)NC6=O)[C@H](F)C5)CC4)nc3cn2)n1` (stereo partly drawn) [I-635], the DC50 is more than 200 nM under setting [1] and more than 200 nM under setting [2].

In the case of `Cn1c(=O)n(C2CCC(=O)NC2=O)c2cccc([C@@H]3CCN(C[C@H]4CC[C@H](n5cc6cc(NC(=O)c7cccc(C#N)n7)ncc6n5)CC4)C[C@@H]3F)c21` (stereo partly drawn) [I-636], the DC50 was more than 200 nM under setting [1] and more than 200 nM under setting [2].

Turning to `Cn1c(=O)n(C2CCC(=O)NC2=O)c2cccc([C@@H]3CCN(C[C@H]4CC[C@H](n5cc6cc(NC(=O)c7cccc(C#N)n7)ncc6n5)CC4)C[C@H]3F)c21` (stereo partly drawn) [I-637], the DC50 runs as follows: under setting [1], more than 200 nM; under setting [2], less than 10 nM.

As to `Cn1c(=O)n(C2CCC(=O)NC2=O)c2cccc([C@H]3CCN(C[C@H]4CC[C@H](n5cc6cc(NC(=O)c7cccc(C#N)n7)ncc6n5)CC4)C[C@@H]3F)c21` (stereo partly drawn) [I-638], the DC50 under setting [1] was more than 200 nM and the 50% degradation concentration (DC50) under setting [2] was less than 10 nM.

Regarding `Cn1c(=O)n(C2CCC(=O)NC2=O)c2cccc([C@H]3CCN(C[C@H]4CC[C@H](n5cc6cc(NC(=O)c7cccc(C#N)n7)ncc6n5)CC4)C[C@H]3F)c21` (stereo partly drawn) [I-639], the DC50 runs as follows: under setting [1], more than 200 nM; under setting [2], more than 200 nM.

For the compound `Cn1c(=O)n(C2CCC(=O)NC2=O)c2cccc([C@@H]3CCN(C[C@H]4CC[C@H](n5cc6cc(NC(=O)c7cccc(C(F)F)n7)ncc6n5)CC4)C[C@@H]3F)c21` (stereo partly drawn) [I-640], the DC50 under setting [1] is more than 200 nM and the DC50 under setting [2] is more than 200 nM.

As to `Cn1c(=O)n(C2CCC(=O)NC2=O)c2cccc([C@@H]3CCN(C[C@H]4CC[C@H](n5cc6cc(NC(=O)c7cccc(C(F)F)n7)ncc6n5)CC4)C[C@H]3F)c21` (stereo partly drawn) [I-641], the DC50 is, setting by setting: under setting [1], more than 200 nM; under setting [2], less than 10 nM.

As for `Cn1c(=O)n(C2CCC(=O)NC2=O)c2cccc([C@H]3CCN(C[C@H]4CC[C@H](n5cc6cc(NC(=O)c7cccc(C(F)F)n7)ncc6n5)CC4)C[C@@H]3F)c21` (stereo partly drawn) [I-642], the DC50 is more than 200 nM under setting [1] and more than 200 nM under setting [2].

As to `Cn1c(=O)n(C2CCC(=O)NC2=O)c2cccc([C@H]3CCN(C[C@H]4CC[C@H](n5cc6cc(NC(=O)c7cccc(C(F)F)n7)ncc6n5)CC4)C[C@H]3F)c21` (stereo partly drawn) [I-643], the DC50 under setting [1] is more than 200 nM and the DC50 under setting [2] was more than 200 nM.

Turning to `Cc1cccc(C(=O)Nc2cc3cn([C@H]4CC[C@H](CN5CC[C@@H](c6cccc7c6n(C)c(=O)n7C6CCC(=O)NC6=O)[C@@H](F)C5)CC4)nc3cc2C(C)(C)O)n1` (stereo partly drawn) [I-644], the DC50 was more than 200 nM under setting [1] and more than 200 nM under setting [2].
